Activity calls are given as the source filed them. No cut-off for these calls is given here.
What was measured:
Trypsin = Trypsin (Homo sapiens, UniProt P07477+P07478+P35030); test: Stability of the compound assessed as trypsin (unknown origin)-mediated compound hydrolysis after 1 hrs by SDS-PAGE analysis; format: ADME, protein assay
Chymotrypsin = Chymotrypsin (Homo sapiens, UniProt Q99895+P17538+P40313+Q6GPI1); test: Stability of the compound assessed as chymotrypsin (unknown origin)-mediated compound hydrolysis after 1 hrs by SDS-PAGE analysis; format: ADME, protein assay
[1] = Stability of the compound assessed as pepsin (unknown origin)-mediated compound hydrolysis after 1 hrs by SDS-PAGE analysis; format: ADME; conditions: human
Escherichia coli [2] = test: Bactericidal activity against Escherichia coli ATCC 25922 assessed as elimination of bacterial cells at MBC after 5 mins by time kill assay; format: functional
HEK-293T = test: Cytotoxicity against HEK293T cells assessed as cell death at 32 uM after 18 to 24 hrs by MTT assay relative to control; format: cell-based; conditions: human
[3] = Cytotoxicity against IPECJ2 cells assessed as cell death at 16 uM after 18 to 24 hrs by MTT assay relative to control; format: cell-based, Sus scrofa; conditions: pig
[4] = Cytotoxicity against mouse RAW264.7 cells assessed as cell viability at 4 uM after 18 to 24 hrs by MTT assay relative to control; format: cell-based; conditions: read-out: Activity
[5] = Hemolytic activity against human RBC at 128 uM after 1 hr; format: ADME, cell-based, Erythrocyte; conditions: red blood cells (erythrocytes), read-out: Activity
Escherichia coli [6] = test: Bactericidal activity against Escherichia coli ATCC 25922 incubated for 4 hrs followed by culture spread on agar plates and cultured overnight in presence of 0.125 to 4 mg/ml proteinase K; format: functional, organism-based
[7] = Stability of the compound assessed as Tritirachium album proteinase K-mediated compound hydrolysis after 8 hrs by SDS-PAGE analysis; format: ADME; conditions: parengyodontium album
Escherichia coli [8] = test: Bactericidal activity against Escherichia coli ATCC 25922 assessed as elimination of bacterial cells at MBC after 30 mins by time kill assay; format: functional
Escherichia coli [9] = test: Bactericidal activity against Escherichia coli ATCC 25922 assessed as elimination of bacterial cells at MBC after 60 mins by time kill assay; format: functional
[10] = Toxicity in ICR mouse assessed as effect on AST levels in serum at 40 mg/kg, ip administered every 12 hrs for 3 days measured at 72 hrs post dose; format: organism-based; conditions: in vivo
[11] = Toxicity in ICR mouse assessed as effect on ALT levels in serum at 40 mg/kg, ip administered every 12 hrs for 3 days measured at 72 hrs post dose; format: organism-based; conditions: in vivo
[12] = Renal toxicity in ICR mouse assessed as effect on BUN levels in serum at 40 mg/kg, ip administered every 12 hrs for 3 days measured at 72 hrs post dose; format: organism-based; conditions: in vivo
[13] = Toxicity in ICR mouse assessed as effect on AST levels in serum at 20 mg/kg, ip administered every 12 hrs for 3 days measured at 72 hrs post dose; format: organism-based; conditions: in vivo
[14] = Toxicity in ICR mouse assessed as effect on ALT levels in serum at 20 mg/kg, ip administered every 12 hrs for 3 days measured at 72 hrs post dose; format: organism-based; conditions: in vivo
[15] = Renal toxicity in ICR mouse assessed as effect on BUN levels in serum at 20 mg/kg, ip administered every 12 hrs for 3 days measured at 72 hrs post dose; format: organism-based; conditions: in vivo
[16] = Stability of the compound assessed as pepsin (unknown origin)-mediated compound hydrolysis by LC-MS analysis; format: ADME; conditions: human
[17] = Stability of the compound assessed as Tritirachium album proteinase K-mediated compound hydrolysis by LC-MS analysis; format: ADME; conditions: parengyodontium album
Escherichia coli [18] = test: Induction of cell membrane disruption in Escherichia coli ATCC 25922 at MBC after 30 mins using FITC-labelled peptides by propidium iodide-staining based confocal fluorescent microscopy; format: organism-based
Lipopolysaccharide (LPS) [19] = test: Displacement of BODIPY-TR-cadaverine from Escherichia coli O111:B4 LPS at 4 uM after 1 hr by spectrofluorophotometric method relative to control
Lipopolysaccharide (LPS) [20] = test: Displacement of BODIPY-TR-cadaverine from Escherichia coli O111:B4 LPS after 1 hr by spectrofluorophotometric method
Lipopolysaccharide (LPS) [21] = test: Binding affinity to Escherichia coli O111:B4 LPS by SPR method
Escherichia coli [22] = test: Bactericidal activity against Escherichia coli O111:B4 assessed as reduction in colony forming units at MBC after 90 mins in presence of LPS; format: functional, organism-based
[23] = Cytotoxicity against mouse RAW264.7 cells assessed as survival rate at 16 uM after 18 to 24 hrs by MTT assay relative to control; format: cell-based; conditions: read-out: Activity
RAW264.7 [24] = test: Inhibition of LPS-stimulated NO production in mouse RAW264.7 cells at 16 uM after 20 hrs by Griess reagent-based assay; format: functional, cell-based
RAW264.7 [25] = test: Inhibition of LPS-stimulated TNFalpha production in mouse RAW264.7 cells at 16 uM after 20 hrs by […]; format: functional, cell-based
Escherichia coli [26] = test: Induction of outer membrane permeabilization in Escherichia coli ATCC 25922 at 1 to 64 uM by NPN-dye based assay; format: organism-based
Lipid bilayer [27] = test: Induction of membrane disruption in LPS/PC/PG unilamellar vesicles assessed as calcein-entrapped liposome leakage at 2 uM after 15 mins by fluorescence assay
Lipid bilayer [28] = test: Induction of membrane disruption in LPS/POPC/POPG unilamellar vesicles assessed as calcein-entrapped liposome leakage after 15 mins by fluorescence assay
Escherichia coli [29] = test: Induction of cytoplasmic membrane depolarization in Escherichia coli ATCC 25922 assessed as induction cytoplasmic ONPG release at 4 uM up to 120 mins by DiSC3-5 dye-based fluorescence spectrophotometric method; format: functional, organism-based
Escherichia coli [30] = test: Induction of membrane disruption in Escherichia coli ATCC 25922 assessed as pore formation at MBC after 1 hr by SEM analysis; format: functional, organism-based
Escherichia coli [31] = test: Induction of membrane disruption in Escherichia coli ATCC 25922 assessed as membrane content leakage at MBC after 1 hr by SEM analysis; format: functional, organism-based
Escherichia coli [32] = test: Induction of membrane disruption in Escherichia coli ATCC 25922 assessed as formation of broken membrane fragments at MBC after 1 hr by SEM analysis; format: functional, organism-based
Escherichia coli [33] = test: Induction of membrane disruption in Escherichia coli ATCC 25922 assessed as pore formation at MBC after 1 hr by TEM analysis; format: functional, organism-based
Escherichia coli [34] = test: Induction of membrane disruption in Escherichia coli ATCC 25922 assessed as outer membrane separation at MBC after 1 hr by TEM analysis; format: functional, organism-based
Escherichia coli [35] = test: Induction of membrane disruption in Escherichia coli ATCC 25922 assessed as sparse cytoplasmic distribution at MBC after 1 hr by TEM analysis; format: functional, organism-based
[36] = Drug localisation at cell membrane of Escherichia coli ATCC 25922 at MBC after 30 mins using FITC-labelled peptides by propidium iodide-staining based confocal fluorescent microscopy; format: ADME, cell membranes; conditions: 0.5 h
Lipid bilayer [37] = test: Induction of membrane disruption in POPC/POPG unilamellar vesicles assessed as calcein-entrapped liposome leakage at 1 to 64 uM after 15 mins by fluorescence assay
Escherichia coli [38] = test: Bactericidal activity against Escherichia coli ATCC 25922 using FITC-labelled peptide incubated for 4 hrs followed by culture spread on agar plates and cultured overnight; format: functional; conditions: ATCC 25922, 4 h

Compound: CC[C@H](C)[C@H](NC(=O)CN)C(=O)NCC(=O)N[C@@H](C)C(=O)N[C@H](C(=O)N[C@@H](CC(C)C)C(=O)N[C@@H](CCCCN)C(=O)N[C@H](C(=O)N[C@@H](CC(C)C)C(=O)N[C@H](C(=O)N[C@H](C(=O)NCC(=O)N[C@@H](CC(C)C)C(=O)N1CCC[C@H]1C(=O)N[C@@H](C)C(=O)N[C@@H](CC(C)C)C(=O)N[C@H](C(=O)N[C@@H](CO)C(=O)N[C@@H](Cc1c[nH]c2ccccc12)C(=O)N[C@H](C(=O)N[C@@H](CCCCN)C(=O)N[C@@H](CCCNC(=N)N)C(=O)N[C@@H](CCCCN)C(=O)N[C@@H](CCCNC(=N)N)C(=O)N[C@@H](CCC(N)=O)C(=O)N[C@@H](CCC(N)=O)C(N)=O)[C@@H](C)CC)[C@@H](C)CC)[C@@H](C)O)[C@@H](C)O)C(C)C)C(C)C [MELITTIN]
- Stability (Trypsin): Unstable
- Stability (Chymotrypsin): Unstable
- Stability [1]: Unstable

Compound: H-LRPLLRPLLRPLLRPLLRPLLRPLLRPL-NH2
- Activity (Escherichia coli [2]): >99.99%
- Activity (HEK-293T): 80%
- Activity [3]: 80%
- viability at 4 µM [4]: 7.52%
- hemolysis at 1 h, 128 µM [5]: > 40%

Compound: H-IKPIIKPIIKPIIKPIIKPIIKPIIKPI-NH2
- Activity (Escherichia coli [6]): Active
- Stability [7]: Stable

Compound: H-LKPLLKPLLKPLLKPLLKPLLKPLLKPL-NH2
- Activity (Escherichia coli [8]): >99.99%

Compound: H-IRPIIRPIIRPIIRPIIRPIIRPIIRPI-NH2
- Activity (Escherichia coli [9]): >99.99%
- Activity [10]: Non-Toxic
- Activity [11]: Non-Toxic
- Activity [12]: Non-Toxic
- Activity [13]: Toxic
- Activity [14]: Toxic
- Activity [15]: Toxic
- Activity (Escherichia coli [6]): Active
- Stability [16]: Stable
- Stability [17]: Stable
- Activity (Escherichia coli [18]): Active
- Activity (Lipopolysaccharide (LPS) [19]): 70%
- Activity (Lipopolysaccharide (LPS) [20]): Dose-dependent effect
- Activity (Lipopolysaccharide (LPS) [21]): Dose-dependent effect
- Activity (Escherichia coli [22]): inactive
- viability at 16 µM [23]: > 80%
- inhibition (RAW264.7 [24]): Active
- inhibition (RAW264.7 [25]): Active
- Activity (Escherichia coli [26]): Active
- Activity (Lipid bilayer [27]): 30%
- Activity (Lipid bilayer [28]): Dose-dependent effect
- Activity (Escherichia coli [29]): Active
- Activity (Escherichia coli [30]): Active
- Activity (Escherichia coli [31]): Active
- Activity (Escherichia coli [32]): Active
- Activity (Escherichia coli [33]): Active
- Activity (Escherichia coli [34]): Active
- Activity (Escherichia coli [35]): Active
- Stability [7]: Stable
- Drug uptake [36]: Active
- Activity (Lipid bilayer [37]): Active
- MBC (Escherichia coli [38]): 4 µM

Reference: ChEMBL document CHEMBL4316596, “Antimicrobial Peptides with High Proteolytic Resistance for Combating Gram-Negative Bacteria” (J Med Chem, 2019)
